Among the data in ChEMBL document CHEMBL4680259, “Discovery of bazedoxifene analogues targeting glycoprotein 130” (Eur J Med Chem, 2020) are IC50 and Activity values, retold here.

Molecules are shown by their SMILES. Where only a bound is given, the exact number is not on record here.

One experiment concerns A549. Briefly: Antiproliferative activity against human A549 cells assessed as cell growth inhibition measured after 24 hrs by MTT assay. To be noted: A549, 24 h. Format: functional, cell-based. In general terms: Tetrazolium assays rely on reduction of a dye to a coloured formazan, in cell work by metabolically active cells.
Experiment [1] concerns the target T1, Interleukin-6 receptor subunit beta (Homo sapiens) (UniProt P40189).
T1 sequence (whole entry): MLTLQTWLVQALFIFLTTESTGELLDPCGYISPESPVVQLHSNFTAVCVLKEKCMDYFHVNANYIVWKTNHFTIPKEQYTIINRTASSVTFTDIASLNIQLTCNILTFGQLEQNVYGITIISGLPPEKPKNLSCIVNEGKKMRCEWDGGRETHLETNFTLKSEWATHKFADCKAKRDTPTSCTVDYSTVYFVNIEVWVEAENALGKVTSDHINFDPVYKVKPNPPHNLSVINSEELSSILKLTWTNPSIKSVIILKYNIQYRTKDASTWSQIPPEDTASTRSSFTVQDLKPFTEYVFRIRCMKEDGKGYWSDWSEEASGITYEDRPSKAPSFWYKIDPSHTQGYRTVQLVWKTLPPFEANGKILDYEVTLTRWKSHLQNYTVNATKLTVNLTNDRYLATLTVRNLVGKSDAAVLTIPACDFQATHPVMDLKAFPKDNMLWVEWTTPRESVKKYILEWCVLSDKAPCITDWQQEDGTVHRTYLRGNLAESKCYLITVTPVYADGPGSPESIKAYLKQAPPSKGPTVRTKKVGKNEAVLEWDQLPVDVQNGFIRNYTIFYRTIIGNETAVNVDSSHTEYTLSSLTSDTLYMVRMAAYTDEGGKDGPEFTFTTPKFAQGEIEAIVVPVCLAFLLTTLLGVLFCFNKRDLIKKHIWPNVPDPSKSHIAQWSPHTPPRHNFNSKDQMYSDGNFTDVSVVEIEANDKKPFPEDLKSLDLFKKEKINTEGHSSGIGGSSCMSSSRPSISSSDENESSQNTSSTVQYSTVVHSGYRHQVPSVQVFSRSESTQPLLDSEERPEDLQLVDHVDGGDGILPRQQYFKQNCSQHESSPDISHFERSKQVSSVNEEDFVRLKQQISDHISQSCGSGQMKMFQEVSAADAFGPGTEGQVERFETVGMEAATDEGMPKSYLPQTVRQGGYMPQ
Briefly: Binding affinity to immobilized GP130 (unknown origin) assessed as response unit at 20 uM by SPR analysis.

The term IC50 denotes the midpoint of a concentration-inhibition curve.

As to `CCCCCCCOc1ccc(Cn2cc(C3CC(c4ccc(C(F)(F)F)cc4)=NN3C(N)=O)c3cc(Br)ccc32)cc1` (stereo not given), in the experiment on A549, the half-maximal inhibitory concentration (IC50) is above 50 µM. For the same molecule, in experiment [1], the Activity came out at 0.6 RU.
The corresponding values for `COc1cc(C2=NN(C(N)=O)C(c3cn(Cc4ccc(OCCN5CCCCC5)cc4)c4ccccc34)C2)cc(OC)c1OC` (stereo not given) are 11.8 µM and 21.7 RU.
For the molecule `NC(=O)N1N=C(c2ccc(C(F)(F)F)cc2)C[C@@H]1c1cn(Cc2ccc(OCCN3CCCCCC3)cc2)c2ccc(Br)cc12`, in the experiment on A549, the IC50 amounted to 6.16 µM. The Activity in experiment [1] stood at 24.2 RU.
In the case of `NC(=O)N1N=C(c2ccc(C(F)(F)F)cc2)C[C@H]1c1cn(Cc2ccc(OCCN3CCCCCC3)cc2)c2ccc(Br)cc12`, the 50% inhibitory concentration (IC50) in the experiment with A549 is 3.04 µM. Moreover, the Activity in experiment [1] amounted to 37.4 RU.
As to `NC(=O)N1N=C(c2ccc(C(F)(F)F)cc2)CC1c1cn(Cc2ccc(OCCC3CCNCC3)cc2)c2ccc(Br)cc12` (stereo not given), the IC50 in the experiment with A549 was 4.62 µM. In addition, in experiment [1], the Activity was found to be 35 RU.
As to `COc1ccc2c(c1)c(C1CC(c3ccc(F)cc3)=NN1C(N)=O)cn2Cc1ccc(OCCN2CCCCC2)cc1` (stereo not given), the IC50 with A549 worked out at 9.47 µM. For the same molecule, in experiment [1], the Activity was 10.9 RU.
In the case of `COc1cccc(C2=NN(C(N)=O)C(c3cn(Cc4ccc(OCCN5CCCCC5)cc4)c4ccc(Br)cc34)C2)c1` (stereo not given), in the experiment with A549, the 50% inhibitory concentration (IC50) was found to be 6.23 µM. Besides, in experiment [1], the Activity was 19.6 RU.
For `NC(=O)N1N=C(c2ccc(Br)cc2)CC1c1cn(Cc2ccc(OCCN3CCCCC3)cc2)c2ccc(Br)cc12` (stereo not given), the concentration for half-maximal inhibition (IC50) with A549 was 6.73 µM. The Activity in experiment [1] worked out at 47.3 RU.
In the same order, the values of `COc1ccccc1C1=NN(C(N)=O)C(c2cn(Cc3ccc(OCCN4CCCCC4)cc3)c3ccc(Br)cc23)C1` (stereo not given) are 6.98 µM and 36.4 RU.
Consider `COc1ccc(C2=NN(C(N)=O)C(c3cn(Cc4ccc(OCCN5CCCCC5)cc4)c4ccc(Br)cc34)C2)cc1` (stereo not given), for which the IC50 in the experiment on A549 amounted to 5.9 µM. In addition, in experiment [1], the Activity was 26.2 RU.
As for `NC(=O)N1N=C(c2cccc(C(F)(F)F)c2)CC1c1cn(Cc2ccc(OCCN3CCCCC3)cc2)c2ccc(Br)cc12` (stereo not given), the half-maximal inhibitory concentration (IC50) in the experiment on A549 was 5.42 µM. For the same molecule, in experiment [1], the Activity turned out to be 10.2 RU.
In the same order, the values of `COc1ccc(C2=NN(C(N)=O)C(c3cn(Cc4ccc(OCCN5CCCCC5)cc4)c4ccccc34)C2)cc1` (stereo not given) are 12.7 µM and 33.3 RU.
In the case of `COc1ccc(C2=NN(C(N)=O)C(c3cn(Cc4ccc(OCCN5CCCCC5)cc4)c4ccc(OC)cc34)C2)cc1` (stereo not given), the IC50 with A549 came out at 14.4 µM. The Activity in experiment [1] came out at 28.8 RU.
With `NC(=O)N1N=C(c2cccc(Cl)c2)CC1c1cn(Cc2ccc(OCCN3CCCCC3)cc2)c2ccc(Br)cc12` (stereo not given), the concentration for half-maximal inhibition (IC50) with A549 stood at 5.9 µM. In experiment [1], the Activity was 27.4 RU.
The corresponding values for `NC(=O)N1N=C(c2ccc(C(F)(F)F)cc2)CC1c1cn(Cc2ccc(OCCN3CCCCC3)cc2)c2ccc(Br)cc12` (stereo not given) are 4.69 µM and 19.9 RU.
On to `COc1ccc(C2=NN(C(N)=O)C(c3cn(Cc4ccc(OCCN5CCCCC5)cc4)c4ccc(Br)cc34)C2)cc1OC` (stereo not given), for which, in the experiment on A549, the 50% inhibitory concentration (IC50) was 7.43 µM. Further, the Activity in experiment [1] came to 30.1 RU.
The corresponding values for `NC(=O)N1N=C(c2ccc(C(F)(F)F)cc2)CC1c1cn(Cc2ccc(OCCN3CCOCC3)cc2)c2ccc(Br)cc12` (stereo not given) are 9.44 µM and 8.2 RU.
In the same order, the values of `COc1ccc2c(c1)c(C1CC(c3ccc(C(F)(F)F)cc3)=NN1C(N)=O)cn2Cc1ccc(OCCN2CCCCC2)cc1` (stereo not given) are 6.18 µM and 10.4 RU.
The corresponding values for `NC(=O)N1N=C(c2ccc(Cl)cc2)CC1c1cn(Cc2ccc(OCCN3CCCCC3)cc2)c2ccc(Br)cc12` (stereo not given) are 5.41 µM and 29.2 RU.
Turning to `CN(C)CCOc1ccc(Cn2cc(C3CC(c4ccc(C(F)(F)F)cc4)=NN3C(N)=O)c3cc(Br)ccc32)cc1` (stereo not given), the IC50 with A549 is 6.21 µM. For the same molecule, in experiment [1], the Activity worked out at 22.7 RU.
Turning to `NC(=O)N1N=C(c2ccc(C(F)(F)F)cc2)CC1c1cn(Cc2ccc(OCCN3CCCCC3)cc2)c2ccccc12` (stereo not given), the concentration for half-maximal inhibition (IC50) with A549 worked out at 5.6 µM. Besides, in experiment [1], the Activity was determined as 8.2 RU.
As to `NC(=O)N1N=C(c2ccc(F)cc2)CC1c1cn(Cc2ccc(OCCN3CCCCC3)cc2)c2ccc(Br)cc12` (stereo not given), the half-inhibitory concentration (IC50) with A549 worked out at 6.8 µM. Moreover, the Activity in experiment [1] worked out at 19.9 RU.
Take `NC(=O)N1N=C(c2ccc(F)cc2)CC1c1cn(Cc2ccc(OCCN3CCCCC3)cc2)c2ccccc12` (stereo not given): in the experiment on A549, the IC50 came to 7.44 µM. Also, in experiment [1], the Activity stood at 21 RU.
The corresponding values for `COc1cc(C2=NN(C(N)=O)C(c3cn(Cc4ccc(OCCN5CCCCC5)cc4)c4ccc(Br)cc34)C2)cc(OC)c1OC` (stereo not given) are 6.96 µM and 32.7 RU.
The corresponding values for `COc1ccc2c(c1)c(C1CC(c3cc(OC)c(OC)c(OC)c3)=NN1C(N)=O)cn2Cc1ccc(OCCN2CCCCC2)cc1` (stereo not given) are 12.2 µM and 16.2 RU.
